Our source for the minimal effective concentration values is ChEMBL document CHEMBL1122472, “Anticoccidial activity of 1-phenyluracils” (1983).

This assay relates to Eimeria tenella. Put plainly: Minimum effective concentration (MEC) against Eimeria tenella to prevent infection and to maintain zero lesion scores. It is filed as functional. Particulars: read-out: MEC.
Take `Cc1cc(-n2ccc(=O)[nH]c2=O)cc(Cl)c1Sc1ccc(Cl)cc1`: the minimal effective concentration was found to be 60 µg/mL. On to `Cc1cc(-n2ccc(=O)[nH]c2=O)cc(Cl)c1S(=O)(=O)c1ccc(Cl)cc1`, for which the minimal effective concentration was less than 125 µg/mL. On to `Cc1cc(C)cc(-n2ccc(=O)[nH]c2=O)c1`, for which the minimal effective concentration is more than 250 µg/mL. The result for `O=c1ccn(-c2cc(Cl)cc(Cl)c2)c(=O)[nH]1` reads 125 µg/mL; that for `Cc1cc(-n2ccc(=O)[nH]c2=O)cc(C)c1Sc1ccc(Cl)cc1`, 500 µg/mL; that for `O=c1ccn(-c2ccc(Oc3ccc(Cl)cc3)c(Cl)c2)c(=O)[nH]1`, more than 500 µg/mL.
